In paper PMC12203311, “Design, synthesis, in silico and in vitro evaluation of pyrrole–indole hybrids as dual tubulin and aromatase inhibitors with potent anticancer activities” (RSC Advances, 2025):

Assays:
Experiment in all cases: NCI60 five-dose screen
HCT-15 = assay type: cell-based; conditions: Homo sapiens, HCT-15, colon cancer
UO-31 = assay type: cell-based; conditions: Homo sapiens, UO-31, renal cancer
HS 578T = assay type: cell-based; conditions: Homo sapiens, breast cancer
T-47D = assay type: cell-based; conditions: Homo sapiens, T47D, breast cancer
NCI/ADR-RES = assay type: cell-based, human; conditions: Homo sapiens, ovarian cancer
KM12 = assay type: cell-based; conditions: Homo sapiens, KM12, colon cancer
BT-549 = assay type: cell-based; conditions: Homo sapiens, BT-549, breast cancer
HOP-62 = assay type: cell-based; conditions: Homo sapiens, HOP-62, NSC lung cancer
SF-268 = assay type: cell-based; conditions: Homo sapiens, SF-268, CNS cancer
SW-620 = assay type: cell-based; conditions: Homo sapiens, SW-620, colon cancer
PC-3 = assay type: cell-based; conditions: Homo sapiens, PC-3, prostate cancer
EKVX = assay type: cell-based; conditions: Homo sapiens, NSC lung cancer
SN12C = assay type: cell-based; conditions: Homo sapiens, renal cancer
A498 = assay type: cell-based; conditions: Homo sapiens, A498, renal cancer
SK-MEL-2 = assay type: cell-based; conditions: Homo sapiens, SK-MEL-2, melanoma
SF-295 = assay type: cell-based; conditions: Homo sapiens, SF-295, CNS cancer
MDA-MB-468 = assay type: cell-based; conditions: Homo sapiens, MDA-MB-468, breast cancer
SK-OV-3 = assay type: cell-based; conditions: Homo sapiens, SK-OV-3, ovarian cancer
NCI-H322M = assay type: cell-based; conditions: Homo sapiens, NSC lung cancer
SK-MEL-28 = assay type: cell-based; conditions: Homo sapiens, SK-MEL-28, melanoma
IGROV1 = assay type: cell-based; conditions: Homo sapiens, IGROV-1; IGROV1, ovarian cancer
MALME-3M = assay type: cell-based; conditions: Homo sapiens, melanoma
NCI-H23 = assay type: cell-based; conditions: Homo sapiens, NCI-H23, NSC lung cancer
HL-60 (TB) = assay type: cell-based; conditions: Homo sapiens, leukemia
HOP-92 = assay type: cell-based; conditions: Homo sapiens, HOP-92, NSC lung cancer
MDA-MB-231/ATCC = assay type: cell-based; conditions: Homo sapiens, breast cancer
OVCAR-3 = assay type: cell-based; conditions: Homo sapiens, OVCAR-3, ovarian cancer
A549/ATCC = assay type: cell-based; conditions: Homo sapiens, NSC lung cancer
COLO 205 = assay type: cell-based, human; conditions: Homo sapiens
UACC-62 = assay type: cell-based; conditions: Homo sapiens, UACC-62, melanoma
RXF 393 = assay type: cell-based; conditions: Homo sapiens, RXF 393, renal cancer
TK-10 = assay type: cell-based; conditions: Homo sapiens, TK-10, renal cancer
[1] = read-out: LC50 (the source's name)

O=C(N/N=C/c1ccc[nH]1)c1[nH]c2ccc(Br)cc2c1-c1ccccc1 [Derivative 3a, (E)-N′-((1H-Pyrrol-2-yl)methylene)-5-bromo-3-phenyl-1H-indole-2-carbohydrazide]
GI50 (HCT-15): 269 nM
CC50 (HCT-15; [1]): 32300 nM
GI50 (UO-31): 431 nM
CC50 (UO-31; [1]): 20200 nM
GI50 (HS 578T): 452 nM
CC50 (HS 578T; [1]): > 100000 nM
GI50 (T-47D): 341 nM
CC50 (T-47D; [1]): 51300 nM
GI50 (NCI/ADR-RES): 440 nM
CC50 (NCI/ADR-RES; [1]): 59200 nM
GI50 (KM12): 388 nM
CC50 (KM12; [1]): 56500 nM
GI50 (BT-549): 375 nM
CC50 (BT-549; [1]): 6390 nM
GI50 (HOP-62): 684 nM
CC50 (HOP-62; [1]): 32600 nM
GI50 (SF-268): 995 nM
CC50 (SF-268; [1]): 56400 nM
GI50 (SW-620): 352 nM
CC50 (SW-620; [1]): 37400 nM
GI50 (PC-3): 344 nM
CC50 (PC-3; [1]): 29600 nM
GI50 (EKVX): 1230 nM
CC50 (EKVX; [1]): 33400 nM
GI50 (SN12C): 371 nM
CC50 (SN12C; [1]): 3970 nM
GI50 (A498): 2570 nM
CC50 (A498; [1]): 41600 nM
GI50 (SK-MEL-2): 357 nM
CC50 (SK-MEL-2; [1]): 38800 nM
GI50 (SF-295): 224 nM
CC50 (SF-295; [1]): 23200 nM
GI50 (MDA-MB-468): 209 nM
CC50 (MDA-MB-468; [1]): 42100 nM
GI50 (SK-OV-3): 702 nM
CC50 (SK-OV-3; [1]): 31800 nM
GI50 (NCI-H322M): 661 nM
CC50 (NCI-H322M; [1]): 36500 nM
GI50 (SK-MEL-28): 488 nM
CC50 (SK-MEL-28; [1]): 37400 nM
GI50 (IGROV1): 404 nM
LC50 (concentration causing 50% net cell kill) (IGROV1): 14600 nM
GI50 (MALME-3M): 320 nM
CC50 (MALME-3M; [1]): 30900 nM
GI50 (NCI-H23): 504 nM
CC50 (NCI-H23; [1]): 37700 nM
GI50 (HL-60 (TB)): 242 nM
CC50 (HL-60 (TB); [1]): > 100000 nM
GI50 (HOP-92): 992 nM
CC50 (HOP-92; [1]): 26400 nM
GI50 (MDA-MB-231/ATCC): 396 nM
CC50 (MDA-MB-231/ATCC; [1]): 21000 nM
GI50 (OVCAR-3): 423 nM
CC50 (OVCAR-3; [1]): 35300 nM
GI50 (A549/ATCC): 357 nM
CC50 (A549/ATCC; [1]): 33600 nM
CC50 (COLO 205; COLO 205, COLO 205, colon cancer, read-out: LC50 (the source's name)): 35100 nM
GI50 (COLO 205; COLO 205, colon cancer): 261 nM
GI50 (UACC-62): 99 nM
CC50 (UACC-62; [1]): 8030 nM
GI50 (RXF 393): 339 nM
CC50 (RXF 393; [1]): 35100 nM
GI50 (TK-10): 2460 nM
CC50 (TK-10; [1]): 37100 nM
